This note sets out measurements from patent US11299485B2, “Thiophene derivative and use thereof” (FUJIMOTO CO., LTD., priority 2018, dated 2022).

Assay type in all cases: cell-based
The test system of one assay is MM.1S cells. In words: Human myeloma cell line MM.1S proliferation suppression test. The settings on record: MM1.S, 72 h, compound 10 μM, 3 days, WST-1 or WST-8, read-out: cell survival rate (% of control) MM.1S. The protocol: Example 51: Human Myeloma Cell Line MM.1S Proliferation Suppression Test
MM.1S cells (ATCC, CRL-2974) were suspended in 10% fetal calf serum (Thermo Fisher Scientific)-containing RPMI1640 medium (ATCC, hereinafter abbreviated as medium B), and diluted as appropriate with 0.4% trypan blue solution (Sigma-Aldrich Co. LLC.). The number of viable cells was counted with a hemocytometer (ERMA INC.). It was diluted with medium B such that the value obtained was 2×10^5 cells/mL. On the other hand, 50 μL of a solution obtained by diluting 4 mM DMSO solution of the test compound 200-fold with medium B was added to each well of a Falcon 96-well flat bottom plate (Corning Incorporated), and the above-mentioned cell suspension was dispensed at 50 μL/well (final concentration of test compound 10 μM). 50 μL of a solution obtained by diluting DMSO 200-fold with medium B was added to the control well. After culturing at 37° C. in a 5% CO2 stream for 3 days, the cell proliferation activity was measured using WST-1 (DOJINDO LABORATORIES) or WST-8 Kit (KISHIDA CHEMICAL Co., Ltd.) and according to each instruction manual attached thereto.

The test system of a further assay is Daudi cells. In words: Human Burkitt lymphoma cell line Daudi proliferation suppression test. The following applies: 72 h, compound 10 μM, 3 days, WST-8, read-out: cell survival rate (% of control) Daudi. The text has this: Example 54: Human Burkitt Lymphoma Cell Line Daudi Proliferation Suppression Test
(§1) Daudi cells (National Institutes of Biomedical Innovation, Health and Nutrition (NIBIOHN), JCRB9071) were suspended in medium B, and diluted as appropriate with 0.4% trypan blue solution (Sigma-Aldrich Co. LLC.). The number of viable cells was counted with a hemocytometer (ERMA INC.). A cell suspension obtained by diluting with medium B such that the value obtained was 1.3×10^5 cells/mL was dispensed into a Falcon 96 well flat bottom plate (Corning Incorporated) at 75 μL/well, and culture was started at 37° C. under 5% CO2 stream. The next day, a solution obtained by diluting 4 mM DMSO solution of the test compound 100-fold with medium B was added by 25 μL to each well (final concentration of test compound 10 μM). 25 μL of a solution obtained by diluting DMSO 100-fold with medium B was added to the control well. After culturing at 37° C. in a 5% CO2 stream for 3 days, the cell proliferation activity was measured according to the instruction manual attached to WST-8 Kit (KISHIDA CHEMICAL Co., Ltd.).
Background: Formazan colour is commonly taken as a measure of viable cells.

A further assay concerns Pfeiffer cells. In words: Human diffuse large B-cell lymphoma cell line Pfeiffer proliferation suppression test. The settings on record: 144 h, compound 10 μM, 3 days + re-plating with compound 3 days, WST-8, read-out: cell survival rate (% of control) Pfeiffer. The source says: Example 52: Human Diffuse Large B-Cell Lymphoma Cell Line Pfeiffer Proliferation Suppression Test
Pfeiffer cells (ATCC, CRL-2632) were suspended in medium B, and diluted as appropriate with 0.4% trypan blue solution (Sigma-Aldrich Co. LLC.). The number of viable cells was counted with a hemocytometer (Funakoshi Co., Ltd.). A cell suspension obtained by diluting with medium B such that the value obtained was 1.3×10^5 cells/mL was dispensed into a Falcon 96 well flat bottom plate (Corning Incorporated) at 75 μL/well, and culture was started at 37° C. under 5% CO2 stream. The next day, a solution obtained by diluting 4 mM DMSO solution of the test compound 100-fold with medium B was added by 25 μL to each well (final concentration of test compound 10 μM). 25 μL of a solution obtained by diluting DMSO 100-fold with medium B was added to the control well. After culturing at 37° C. in a 5% CO2 stream for 3 days, the cell culture medium was uniformly suspended with a multi channel pipette, 14 μL per well was transferred into another new Falcon 96 well flat bottom plate. A solution obtained by diluting 4 mM DMSO solution of the same test compound as the first time 400-fold with medium B was added by 86 μL to a total amount of 100 μL (final concentration of test compound 10 μM). After culturing at 37° C. in a 5% CO2 stream for 3 days, the cell proliferation activity was measured according to the instruction manual attached to WST-8 Kit (KISHIDA CHEMICAL Co., Ltd.).

The next assay concerns Kasumi-7 cells. The experiment in a line: Human acute lymphoblastic leukemia cell line Kasumi-7 proliferation suppression test. The following applies: 72 h, compound 10 μM, 3 days, WST-8, read-out: cell survival rate (% of control) Kasumi-7. The text has this:
Example 55: Human Acute Lymphoblastic Leukemia Cell Line Kasumi-7 Proliferation Suppression Test
Kasumi-7 cells (NIBIOHN, JCRB1401) were suspended in 20% fetal calf serum (Thermo Fisher Scientific, Inc.)-containing RPMI1640 medium (ATCC, hereinafter abbreviated as medium C), and diluted as appropriate with 0.4% trypan blue solution (Sigma-Aldrich Co. LLC.). The number of viable cells was counted with a hemocytometer (Funakoshi Co., Ltd.). A cell suspension obtained by diluting with medium C such that the value obtained was 1.3×10^5 cells/mL was dispensed into a Falcon 96 well flat bottom plate (Corning Incorporated) at 75 μL/well, and culture was started at 37° C. under 5% CO2 stream. The next day, a solution obtained by diluting 4 mM DMSO solution of the test compound 100-fold with medium C was added by 25 μL to each well (final concentration of test compound 10 μM). 25 μL of a solution obtained by diluting DMSO 100-fold with medium C was added to the control well. After culturing at 37° C. in a 5% CO2 stream for 3 days, the cell proliferation activity was measured according to the instruction manual attached to WST-8 Kit (KISHIDA CHEMICAL Co., Ltd.).

For a further assay, the system named is REC-1 cells. The experiment in a line: Human mantle cell lymphoma cell line REC-1 proliferation suppression test. The following applies: Rec1, 72 h, compound 10 μM, 3 days, WST-8, read-out: cell survival rate (% of control) REC-1. The protocol: Example 53: Human Mantle Cell Lymphoma Cell Line REC-1 Proliferation Suppression Test
as §1, with “REC-1” for “Daudi”, “(ATCC, CRL-3004)” for “(National Institutes of Biomedical Innovation, Health and Nutrition (NIBIOHN), JCRB9071)”, “(Funakoshi Co., Ltd.).” for “(ERMA INC.).”

Take `O=C1CCC(N2C(=O)c3ccccc3C2=O)C(=O)N1` (centres unmarked) [Thalidomide, reference compound]: the viability at 10 µM in the assay on MM.1S cells is 79%; with Daudi cells it was 81%; with Pfeiffer cells, 104%; with Kasumi-7 cells it was 96%; in the assay on REC-1 cells, 94%.
